In patent US20080108661A1, “Medicaments” (AstraZeneca AB, priority 2006, published 2008):
Values belong to the molecule of their own block, whether it stands above or below them.

Experiments:
CCR3 = molecular target: T1, CCR3 (Homo sapiens, UniProt P51677); assay: Chemokine (CCR3 ligand) stimulation of human OA cartilage explant, gene expression (low density array Q-PCR); assay type: cell-based
T1 construct: Human osteoarthritic cartilage is obtained during total knee replacement surgery; from tissue; host or cells: human osteoarthritic knee articular cartilage explants (femoral condyles and tibial plateau)
T1 sequence (P51677 1-355): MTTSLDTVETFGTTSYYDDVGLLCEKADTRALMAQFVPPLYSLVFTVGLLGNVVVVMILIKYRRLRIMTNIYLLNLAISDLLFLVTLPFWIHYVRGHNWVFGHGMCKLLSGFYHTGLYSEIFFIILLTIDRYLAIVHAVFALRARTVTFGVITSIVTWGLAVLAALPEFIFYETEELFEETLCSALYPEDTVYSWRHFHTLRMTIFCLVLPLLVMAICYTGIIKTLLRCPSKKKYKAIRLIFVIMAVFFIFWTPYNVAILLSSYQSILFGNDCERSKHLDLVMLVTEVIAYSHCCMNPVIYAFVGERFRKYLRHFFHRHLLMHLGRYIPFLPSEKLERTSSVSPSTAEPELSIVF
Excerpt: (ii) Chemokine Stimulation of Human Cartilage Explant
Human osteoarthritic cartilage is obtained during total knee replacement surgery. Full-depth cartilage slices are obtained from both the femoral condyles and the tibial plateau and explant discs removed using a 5 mm diameter KAI sterile dermal biopsy punch. After dissection, the explants are all pooled in a Petri dish. For each condition, sixteen explants are randomly taken from the Petri dish and cultured in polypropylene 96-well plates with phenol red free Dulbecco's Modified Eagle Medium (DMEM; Gibco, Grand Island, N.Y.), 150 μg/ml gentamicin, 1.5 μg/ml fungizone and 100 units/ml penicillin, 100 μg/ml streptomycin and L-Glutamine.
After an initial 48 hour pre-stimulation, rest period, experimental reagents are added for 24, 48 or 96 hours. Explants are incubated with the appropriate concentration of compound alone, or DMSO as a control, for 20 minutes prior to addition of the chemokine. Cartilage is subsequently treated with either vehicle control (plus DMSO); chemokine (at 30-300 ng/ml) plus DMSO; or chemokine (30 ng/ml) plus the compound of Example 1. Conditioned media are collected 24, 48 or 96 hours post stimulation and stored at −20° C. prior to analysis. Cartilage explants are also collected and snap frozen in liquid nitrogen, prior to RNA extraction.
Extraction of RNA from Cartilage Explants
Each condition is composed of sixteen cartilage explant discs, which are pooled prior to snap freezing in liquid nitrogen. These pooled samples are ground to a fine powder under liquid nitrogen then resuspended in 10 ml trizol in polypropylene Oakridge tubes, and RNA extracted according to the manufacturer's protocol. The RNA pellet is resuspended in approx 500 μl RNAse and DNAse free water and then combined with 1.75 ml Qiagen RLT. RNA is further purified with Qiagen RNEasy mini columns (Qiagen Cat# 74104), as described in the manufacturer's protocol, including on column DNA digestion. The RNA obtained by these procedures is analysed using Agilent bioanalyser technology, according to the manufacturer's instructions, to determine the quantity and quality.
Gene Expression Analysis: the 96 and 48 Gene Fingerprints Using Low Density Arrays (Q-PCR)
Low-density gene arrays [quantitative polymerise chain reaction (Q-PCR) method] with either 96 or 48 genes pertinent to OA (as identified by Affymetrix microarray analysis of OA articular cartilage) are used to assess the effects of treating human diseased cartilage explants with the chemokines eotaxin-2 or RANTES, alone or in combination with the compound of Example 1. Gene expression changes were reported as fold change normalised against a standard non-affected gene: GAPDH.

[1] = system: human articular chondrocytes (HAC)
[2] = system: human articular chondrocytes (HAC); remark: listed apart in the source
Procedure: (i) Isolation of Human Articular Chondrocytes (HAC) from OA Cartilage for Histamine stimulation. HAC are isolated from cartilage from osteoarthritic tissues removed at joint replacement. Cartilage is incubated overnight in 2 mg/ml collagenase in DMEM+10% FCS+PSG at 37° C., with shaking. The resulting cell suspension is filtered to remove undigested cartilage and the cells are centrifuged at 1200 rpm for 10 minutes. Cells are resuspended in DMEM plus 10% FCS PSG/NEAA/fungizone/gentamycin, plated at approx 5×10^−6 in a T-75 and grown to confluence. Cells are subsequently plated at approx 10,000 cells per well into 96 well plates for stimulation with histamine. Triplicate wells of first passage HAC are treated with either DMEM (10% or 0% FCS) alone (control), or DMEM (10% or 0% FCS) plus histamine (dose range 10 nM up to 1 mM). Cells are incubated at 37° C. for 24 hours, the conditioned medium harvested, and assayed for PGE2, MMP or cytokine production by enzyme linked immunosorbent assay (ELISA). […] For some experiments cells are incubated with specific antagonists for 20 minutes prior to, and in combination with, histamine stimulation.

[3] = system: murine articular knee joint; assay: Histamine-induced joint oedema, murine articular knee joint (calliper measurements); assay type: in vivo, mouse
Excerpt: (§1) (iii) In Vivo Functional Validation of Histamine-Induced Responses Murine Articular Knee Joint
(§2) It is hypothesised that histamine released by trafficking mast cells or by the de novo synthesis of histamine by articular chondrocytes induces a H1-dependant increase in COX-2 mRNA expression and elevated PGE2 synthesis in synovial fibroblasts and articular chondrocytes. To evaluate the role of histamine in pathological processes in the joint, a pharmacodynamic mouse model was developed to investigate the effect of intra-articular injection (IAI) of histamine on joint swelling using calliper measurements, and measuring PGE2 and/or 11-6 levels from synovial knee joint ravages.
(§3) Adult C57B16 mice were dosed with either vehicle or test compound 1 hour prior to intra-articular injection of histamine (5 μmol). Swelling was induced by injection of 6 μl of histamine/saline suspension into the knee joint cavity under inhalation anaesthesia with isoflurane. Joint swelling was quantified by calliper measurements taken at 1, 6, 12, 24, 36 and 48 hr. Terminal synovial fluid knee lavages were sampled and levels of the inflammatory mediator I1-6 were measured in the fluid from synovial knee joint ravages.

[4] = system: murine articular knee joint; details: intra-articular histamine injection, mice
Excerpt: as §1, §2, §3

[5] = Eotaxin 2 stimulation, donor 014—04

inhibition of CCR3 ligand-induced increase in ADAMTS4, MMP13, IL-6, IL-8 and MMP2 mRNA expression (CCR3; at 3×pA2, n=3 (FIG. 3)): inhibited
Molecule: O=C(NC[C@@H](O)CN1CCC(Oc2ccc(Cl)c(Cl)c2)CC1)c1sc(=O)[nH]c1C(F)(F)F [Example 1, N-{(2R)-3-[4-(3,4-Dichlorophenoxy)piperidin-1-yl]-2-hydroxypropyl}-2,3-dihydro-2-oxo-4-(trifluoromethyl)-5-thiazolecarboxamide benzenesulfonate Form A]

Molecule: O=C(O)COCCN1CCN(C(c2ccccc2)c2ccc(Cl)cc2)CC1 (stereo not shown) [cetirizine]
inhibition of histamine-induced increase in Cox2 mRNA expression ([1]; 100 nM): inhibited | inhibition of histamine-induced PGE2 release ([2]; 100 nM (FIG. 2)): inhibited

Molecule: Clc1ccc2c(c1)CCc1cccnc1C2=C1CCNCC1 [desloratadine]
histamine-induced joint swelling under treatment ([3]; 5.1 mg/kg, dosed 1 hour prior to intra-articular histamine): almost completely ablated

Molecule: NCCc1c[nH]cn1 [histamine, 2-(4-imidazolyl)-ethylamine]
Cox2 mRNA expression levels ([1]; histamine stimulation): increase | increase in joint oedema compared to vehicle control animals ([3]; intra-articular injection of histamine (5 μmol), C57B16 mice): 5 fold | release of PGE2 ([2]; histamine stimulation, n=6 (FIG. 2)): dose dependent increase | increase in release of IL-6 into the synovial fluid [4]: > 60%

increased expression of IL-6 (CCR3; [5]): 14 fold | increased expression of IL-8 (CCR3; [5]): 11 fold | elevation of periostin expression (CCR3; donor 014—04): 2 fold | enhanced expression of ADAMTS4 (CCR3; donor 014—04): 3.6 fold | enhanced expression of ADAMTS 5 (CCR3; donor 014—04): 6 fold
B1: Eotaxin 2: the CCR3 ligand, a chemokine used to stimulate cartilage explants (protein, UniProt O00175 27-119, looked up)
C-C motif chemokine 24: VVIPSPCCMFFVSKRIPENRVVSYQLSSRSTCLKAGVIFTTKKGQQFCGDPKQEWVQRYMKNLDAKQKKASPRARAVAVKGPVQRYPGNQTTC
